Test results reported in the NIST ThermoML archive (doi:10.1016/j.jct.2015.05.014).
± gives the expanded uncertainty stated by the source.

Assay: activity coefficient (dimensionless); of the first substance listed, at infinite dilution; xn = mol fraction of the nth substance listed
Conditions: 100 kPa, Liquid, Chromatography, x1 = 0

Row | Compound | activity coefficient (308.15 K) | activity coefficient (318.15 K) | activity coefficient (328.15 K) | activity coefficient (338.15 K) | activity coefficient (348.15 K) | activity coefficient (358.15 K) | activity coefficient (368.15 K) | activity coefficient (378.15 K) | activity coefficient (388.15 K) | activity coefficient (398.15 K) | activity coefficient (408.15 K)
1 | C=CCCCCCC [oct-1-ene] + CC(O)C(=O)[O-].CC[N+]1(C)CCCC1 | 145 ± 13 | 136 ± 12 | 127 ± 11 | 120 ± 10 | 114 ± 10 | 108 ± 9 | 103 ± 9 | – | – | – | –
2 | CC#N [acetonitrile] + CC(O)C(=O)[O-].CC[N+]1(C)CCCC1 | – | 0.773 ± 0.065 | 0.808 ± 0.068 | 0.844 ± 0.07 | 0.88 ± 0.07 | 0.915 ± 0.076 | 0.962 ± 0.079 | – | – | – | –
3 | C1COCCO1 [1,4-dioxane] + CC(O)C(=O)[O-].CC[N+]1(C)CCCC1 | – | 2.25 ± 0.19 | 2.33 ± 0.2 | 2.4 ± 0.21 | 2.48 ± 0.21 | 2.55 ± 0.22 | 2.65 ± 0.23 | – | – | – | –
4 | CCC(=O)CC [pentan-3-one] + CC(O)C(=O)[O-].CC[N+]1(C)CCCC1 | – | 4.84 ± 0.42 | 4.93 ± 0.43 | 5.05 ± 0.44 | 5.14 ± 0.44 | 5.22 ± 0.45 | 5.35 ± 0.46 | – | – | – | –
5 | C#CCCCC [1-hexyne] + CC(O)C(=O)[O-].CC[N+]1(C)CCCC1 | 5.14 ± 0.44 | 5.48 ± 0.47 | 5.79 ± 0.5 | 6.21 ± 0.54 | 6.54 ± 0.56 | 6.92 ± 0.6 | 7.24 ± 0.62 | – | – | – | –
6 | CCCCCC [hexane] + CC(O)C(=O)[O-].CC[N+]1(C)CCCC1 | 135 ± 12 | 125 ± 11 | 114 ± 10 | 107 ± 9 | 99.9 ± 8.7 | 94.6 ± 8.2 | 88.7 ± 7.7 | – | – | – | –
7 | C1CCOC1 [tetrahydrofuran] + CC(O)C(=O)[O-].CC[N+]1(C)CCCC1 | 3.51 ± 0.3 | 3.54 ± 0.31 | 3.59 ± 0.31 | 3.62 ± 0.31 | 3.68 ± 0.32 | 3.74 ± 0.32 | 3.82 ± 0.33 | – | – | – | –
8 | COC(C)=O [methyl ethanoate] + CC(O)C(=O)[O-].CC[N+]1(C)CCCC1 | – | 2.95 ± 0.25 | 3.03 ± 0.26 | 3.1 ± 0.27 | 3.18 ± 0.27 | 3.25 ± 0.28 | 3.37 ± 0.29 | 3.45 ± 0.3 | – | – | –
9 | C#CCCCCC [1-heptyne] + CC(O)C(=O)[O-].CC[N+]1(C)CCCC1 | 8.33 ± 0.72 | 8.83 ± 0.76 | 9.25 ± 0.8 | 9.82 ± 0.85 | 10.3 ± 0.9 | 10.7 ± 0.9 | 11.2 ± 1 | – | – | – | –
10 | CCCO [propan-1-ol] + CC(O)C(=O)[O-].CC[N+]1(C)CCCC1 | – | – | – | – | – | 0.236 ± 0.032 | 0.256 ± 0.033 | 0.277 ± 0.034 | 0.302 ± 0.035 | 0.327 ± 0.036 | 0.349 ± 0.037
11 | CCCOCCC [dipropyl ether] + CC(O)C(=O)[O-].CC[N+]1(C)CCCC1 | 52.1 ± 4.5 | 50.3 ± 4.4 | 48.2 ± 4.2 | 46.2 ± 4 | 44.8 ± 3.9 | 43.2 ± 3.7 | 41.9 ± 3.6 | – | – | – | –
12 | CCc1ccccc1 [ethylbenzene] + CC(O)C(=O)[O-].CC[N+]1(C)CCCC1 | – | 9.27 ± 0.8 | 9.36 ± 0.81 | 9.45 ± 0.82 | 9.58 ± 0.83 | 9.68 ± 0.84 | 9.86 ± 0.85 | – | – | – | –
13 | C1CCCCCC1 [cycloheptane] + CC(O)C(=O)[O-].CC[N+]1(C)CCCC1 | 69.7 ± 6 | 64.6 ± 5.6 | 60.3 ± 5.2 | 57 ± 4.9 | 53.8 ± 4.7 | 51 ± 4.4 | 47.8 ± 4.1 | – | – | – | –
14 | CCCCC(C)=O [2-hexanone] + CC(O)C(=O)[O-].CC[N+]1(C)CCCC1 | – | 7.09 ± 0.61 | 7.16 ± 0.62 | 7.22 ± 0.62 | 7.31 ± 0.63 | 7.39 ± 0.64 | 7.54 ± 0.65 | – | – | – | –
15 | C#CCCCCCC [1-octyne] + CC(O)C(=O)[O-].CC[N+]1(C)CCCC1 | 13.6 ± 1.2 | 14.2 ± 1.2 | 14.7 ± 1.3 | 15.5 ± 1.3 | 16 ± 1.4 | 16.6 ± 1.4 | 17.1 ± 1.5 | – | – | – | –
16 | c1ccncc1 [pyridine] + CC(O)C(=O)[O-].CC[N+]1(C)CCCC1 | – | 1.26 ± 0.11 | 1.3 ± 0.11 | 1.36 ± 0.11 | 1.41 ± 0.12 | 1.46 ± 0.12 | 1.53 ± 0.13 | – | – | – | –
17 | CCCC(=O)CC [3-hexanone] + CC(O)C(=O)[O-].CC[N+]1(C)CCCC1 | – | 8.06 ± 0.7 | 8.06 ± 0.7 | 8.12 ± 0.7 | 8.19 ± 0.71 | 8.25 ± 0.71 | 8.4 ± 0.73 | – | – | – | –
18 | CCOCC [diethyl ether] + CC(O)C(=O)[O-].CC[N+]1(C)CCCC1 | 15.8 ± 1.4 | 15.6 ± 1.3 | 15.5 ± 1.3 | 15.1 ± 1.3 | 15 ± 1.3 | 15.1 ± 1.3 | 14.9 ± 1.3 | – | – | – | –
19 | COC(C)(C)C [2-methoxy-2-methylpropane] + CC(O)C(=O)[O-].CC[N+]1(C)CCCC1 | 18.1 ± 1.6 | 18 ± 1.6 | 17.9 ± 1.5 | 17.9 ± 1.5 | 17.8 ± 1.5 | 17.7 ± 1.5 | 17.7 ± 1.5 | – | – | – | –
20 | Cc1cccc(C)c1 [1,3-dimethylbenzene] + CC(O)C(=O)[O-].CC[N+]1(C)CCCC1 | – | 10.1 ± 0.9 | 10.2 ± 0.9 | 10.4 ± 0.9 | 10.4 ± 0.9 | 10.5 ± 0.9 | 10.7 ± 0.9 | – | – | – | –
21 | Cc1ccccc1C [1,2-dimethylbenzene] + CC(O)C(=O)[O-].CC[N+]1(C)CCCC1 | – | 8.23 ± 0.71 | 8.33 ± 0.72 | 8.46 ± 0.73 | 8.57 ± 0.74 | 8.69 ± 0.75 | 8.9 ± 0.8 | – | – | – | –
22 | C1=CCCCC1 [cyclohexene] + CC(O)C(=O)[O-].CC[N+]1(C)CCCC1 | 22.4 ± 1.9 | 21.7 ± 1.9 | 20.7 ± 1.8 | 20.2 ± 1.7 | 19.7 ± 1.7 | 19.5 ± 1.7 | 18.9 ± 1.6 | – | – | – | –
23 | CCCCCCCCCC [decane] + CC(O)C(=O)[O-].CC[N+]1(C)CCCC1 | 787 ± 68 | 725 ± 63 | 651 ± 57 | 597 ± 52 | 542 ± 47 | 496 ± 43 | 456 ± 40 | – | – | – | –
24 | CCC(C)CC [3-methylpentane] + CC(O)C(=O)[O-].CC[N+]1(C)CCCC1 | 122 ± 11 | 111 ± 10 | 102 ± 9 | 94.5 ± 8.2 | 88.7 ± 7.7 | 83.5 ± 7.2 | 78.4 ± 6.8 | – | – | – | –
25 | CCO [ethanol] + CC(O)C(=O)[O-].CC[N+]1(C)CCCC1 | – | – | – | – | – | 0.174 ± 0.03 | 0.187 ± 0.03 | 0.201 ± 0.031 | 0.219 ± 0.031 | 0.234 ± 0.032 | 0.255 ± 0.033
